Measured values: publication PMC3038857, “Using Nuclear Receptor Activity to Stratify Hepatocarcinogens” (PLoS ONE, 2011)
Like-named read-outs stand apart in the source and are kept apart here.

How the values were obtained:
Mouse Liver = details: ref ToxRefDB, cited from earlier work
AR (androgen receptor) [1] = target: T1, AR (androgen receptor) (Homo sapiens, UniProt P10275); assay: NCGC_AR_Agonist: GAL4 BLAM Reporter gene assay: AR; type: cell-based; details: agonist mode; scale not given, looks like -log10 of molar active concentration; 0 = no activity
T1 construct: expressed in transfected cells
T1 sequence (P10275 1-920): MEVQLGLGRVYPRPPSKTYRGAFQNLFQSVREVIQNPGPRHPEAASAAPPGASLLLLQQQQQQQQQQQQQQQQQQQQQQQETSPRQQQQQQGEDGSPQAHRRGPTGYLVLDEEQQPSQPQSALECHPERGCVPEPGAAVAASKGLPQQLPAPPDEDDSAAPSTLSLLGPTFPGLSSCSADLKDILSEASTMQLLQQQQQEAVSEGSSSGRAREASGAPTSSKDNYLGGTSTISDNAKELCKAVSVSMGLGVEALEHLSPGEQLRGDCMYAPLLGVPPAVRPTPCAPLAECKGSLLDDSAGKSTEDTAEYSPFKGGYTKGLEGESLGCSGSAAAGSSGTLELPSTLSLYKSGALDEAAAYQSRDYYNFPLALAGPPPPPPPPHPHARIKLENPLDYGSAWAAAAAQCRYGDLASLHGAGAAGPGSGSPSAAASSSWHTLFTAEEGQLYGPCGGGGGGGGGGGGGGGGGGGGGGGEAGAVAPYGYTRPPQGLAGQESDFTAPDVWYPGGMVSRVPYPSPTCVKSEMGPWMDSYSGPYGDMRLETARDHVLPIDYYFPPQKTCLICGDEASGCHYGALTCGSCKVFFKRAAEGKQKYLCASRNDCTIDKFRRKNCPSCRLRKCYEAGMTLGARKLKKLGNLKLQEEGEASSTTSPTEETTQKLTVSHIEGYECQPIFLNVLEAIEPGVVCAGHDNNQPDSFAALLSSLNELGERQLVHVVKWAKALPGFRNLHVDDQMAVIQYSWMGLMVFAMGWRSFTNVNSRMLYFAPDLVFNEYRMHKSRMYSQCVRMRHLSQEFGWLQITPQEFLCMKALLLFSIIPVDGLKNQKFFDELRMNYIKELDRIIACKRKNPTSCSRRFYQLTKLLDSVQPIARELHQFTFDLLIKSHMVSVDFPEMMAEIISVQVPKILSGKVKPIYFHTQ
Procedure: (§1) These assays measure binding constants and enzyme inhibition values for nuclear receptors. The targets include [drawing 67] , [drawing 68] , [drawing 69] , [drawing 70] , [drawing 71] , [drawing 72] , [drawing 73] , [drawing 74] , [drawing 75] and [drawing 76] . Each of the nuclear receptor targets was measured in agonist mode. Assays were run at the NIH Chemical Genomics Center (Rockville, MD).
(§2) Cell-based HTS Assays: These assays measuring binding constants and enzyme inhibition values for nuclear receptors. The targets include AR, ER, FXR, LXR, PPARα, PPARδ, PPARγ, RXRα, RXRβ and PXR. Each of the nuclear receptor targets was measured in both agonist and antagonist mode, but the antagonist data is still undergoing analysis due to possible interference between cytotoxicity and assay activity, so antagonist mode data were not used in the present analysis. Assays were run at the NIH Chemical Genomics Center (Rockville, MD) as part of the Tox21 collaboration. […] The R^2 was required to be ≥0.5. Values where only the highest concentration exceeded 50% activity were excluded to eliminate weak or false positives. Detailed description of the methods, data and analysis methods for this dataset will be presented in a separate publication.

AR (androgen receptor) [2] = target: T1, AR (androgen receptor); assay: NCGC_AR_Antagonist: GAL4 BLAM Reporter gene assay: AR; type: cell-based; details: antagonist mode
Procedure: as §1, §2

[3] = mouse chronic study, liver, neoplastic lesion, coded 6 / Inf / 0, code not explained here
[4] = scale not given, looks like -log10 of molar active concentration, 0 = no activity

| Structure (SMILES) | CHR_Mouse_Liver_3_NeoplasticLesion (Mouse Liver; [3]) | NCGC_AR_Agonist (AR (androgen receptor) [1]) | NCGC_AR_Antagonist (AR (androgen receptor) [2]; [4]) | further results |
| --- | --- | --- | --- | --- |
| CC(C)N1C(=O)c2ccccc2NS1(=O)=O [r37] | 6 | – | – | – |
| CCCCOCN(C(=O)CCl)c1c(CC)cccc1CC [r46] | – | 0 | 4.347 | – |
| CNC(=O)Oc1cccc2ccccc12 [r52] | 6 | – | – | – |
| CC(C)=CC1C(C(=O)OCc2coc(Cc3ccccc3)c2)C1(C)C (stereo not shown) [r280] | – | – | – | CHR_Mouse_Liver_3_NeoplasticLesion (Mouse Liver; chronic study, mouse liver): 6 |
| CC(C)(c1ccc(O)cc1)c1ccc(O)cc1 [r40] | – | 0 | 4.137 | – |
| CCCC1COC(Cn2cncn2)(c2ccc(Cl)cc2Cl)O1 (stereo not shown) [r262] | – | – | – | CHR_Mouse_Liver_3_NeoplasticLesion (Mouse Liver; mouse, chronic study): 6 |
| Cc1c(COC(=O)C2C(/C=C(\Cl)C(F)(F)F)C2(C)C)cccc1-c1ccccc1 (stereo not shown) [r39] | 6 | – | – | – |
| CCC(C)n1c(=O)[nH]c(C)c(Br)c1=O (stereo not shown) [r43] | 6 | – | – | – |
| COc1ccc(-c2ccccc2)cc1NNC(=O)OC(C)C [r38] | 6 | 0 | 0 | – |
| N#Cc1cc(Br)c(O)c(Br)c1 [r44] | 6 | 0 | 0 | – |
| Cc1ccccc1CO[C@@H]1C[C@@]2(C(C)C)CC[C@]1(C)O2 [r64] | 6 | 0 | 0 | – |
| CC(C)Oc1cc(-n2nc(C(C)(C)C)oc2=O)c(Cl)cc1Cl [row 225] | – | – | – | NCGC_AR_Antagonist (AR (androgen receptor) [2]): 4.167; CHR_Mouse_Liver_3_NeoplasticLesion (Mouse Liver; chronic mouse study, liver): 6 |
| CC1=C(C(=O)Nc2ccccc2)SCCO1 [r53] | – | 0 | 0 | – |
| CCSC(=O)N(CC(C)C)CC(C)C [r49] | – | 0 | 0 | – |
| CC(C)N1C(=O)N(c2ccccc2)CS/C1=N\C(C)(C)C [r45] | 6 | 0 | 0 | – |
